What all share (experiment): cell-based
In one assay the target is hNav1.7 (Homo sapiens, UniProt Q15858). The format is cell-based. The conditions noted are these: IonWorks Quattro, read-out: IWQ Use Nav1.7. For orientation: The patch-clamp technique gives a direct electrical read-out from membranes.
A further assay addresses hNav1.5 (Homo sapiens, UniProt Q14524). To be noted: IonWorks Quattro, read-out: IWQ Use Nav1.5.
A further assay concerns the target hNav1.3 (Homo sapiens, UniProt Q9NY46). To be noted: IonWorks Quattro, read-out: IWQ Use Nav1.3.

This note sets out measurements from US9340590B2 (priority 2011, dated 2016).

Each structure is given as a SMILES string. Read-outs that look alike come from different tables or passages of the source. Positions of bridges follow the written chain, without caps; N, C: chain ends. Residues, ends and D or L forms follow the SMILES beside them.

hNav1.3, sequence (Q9NY46 whole entry, looked up): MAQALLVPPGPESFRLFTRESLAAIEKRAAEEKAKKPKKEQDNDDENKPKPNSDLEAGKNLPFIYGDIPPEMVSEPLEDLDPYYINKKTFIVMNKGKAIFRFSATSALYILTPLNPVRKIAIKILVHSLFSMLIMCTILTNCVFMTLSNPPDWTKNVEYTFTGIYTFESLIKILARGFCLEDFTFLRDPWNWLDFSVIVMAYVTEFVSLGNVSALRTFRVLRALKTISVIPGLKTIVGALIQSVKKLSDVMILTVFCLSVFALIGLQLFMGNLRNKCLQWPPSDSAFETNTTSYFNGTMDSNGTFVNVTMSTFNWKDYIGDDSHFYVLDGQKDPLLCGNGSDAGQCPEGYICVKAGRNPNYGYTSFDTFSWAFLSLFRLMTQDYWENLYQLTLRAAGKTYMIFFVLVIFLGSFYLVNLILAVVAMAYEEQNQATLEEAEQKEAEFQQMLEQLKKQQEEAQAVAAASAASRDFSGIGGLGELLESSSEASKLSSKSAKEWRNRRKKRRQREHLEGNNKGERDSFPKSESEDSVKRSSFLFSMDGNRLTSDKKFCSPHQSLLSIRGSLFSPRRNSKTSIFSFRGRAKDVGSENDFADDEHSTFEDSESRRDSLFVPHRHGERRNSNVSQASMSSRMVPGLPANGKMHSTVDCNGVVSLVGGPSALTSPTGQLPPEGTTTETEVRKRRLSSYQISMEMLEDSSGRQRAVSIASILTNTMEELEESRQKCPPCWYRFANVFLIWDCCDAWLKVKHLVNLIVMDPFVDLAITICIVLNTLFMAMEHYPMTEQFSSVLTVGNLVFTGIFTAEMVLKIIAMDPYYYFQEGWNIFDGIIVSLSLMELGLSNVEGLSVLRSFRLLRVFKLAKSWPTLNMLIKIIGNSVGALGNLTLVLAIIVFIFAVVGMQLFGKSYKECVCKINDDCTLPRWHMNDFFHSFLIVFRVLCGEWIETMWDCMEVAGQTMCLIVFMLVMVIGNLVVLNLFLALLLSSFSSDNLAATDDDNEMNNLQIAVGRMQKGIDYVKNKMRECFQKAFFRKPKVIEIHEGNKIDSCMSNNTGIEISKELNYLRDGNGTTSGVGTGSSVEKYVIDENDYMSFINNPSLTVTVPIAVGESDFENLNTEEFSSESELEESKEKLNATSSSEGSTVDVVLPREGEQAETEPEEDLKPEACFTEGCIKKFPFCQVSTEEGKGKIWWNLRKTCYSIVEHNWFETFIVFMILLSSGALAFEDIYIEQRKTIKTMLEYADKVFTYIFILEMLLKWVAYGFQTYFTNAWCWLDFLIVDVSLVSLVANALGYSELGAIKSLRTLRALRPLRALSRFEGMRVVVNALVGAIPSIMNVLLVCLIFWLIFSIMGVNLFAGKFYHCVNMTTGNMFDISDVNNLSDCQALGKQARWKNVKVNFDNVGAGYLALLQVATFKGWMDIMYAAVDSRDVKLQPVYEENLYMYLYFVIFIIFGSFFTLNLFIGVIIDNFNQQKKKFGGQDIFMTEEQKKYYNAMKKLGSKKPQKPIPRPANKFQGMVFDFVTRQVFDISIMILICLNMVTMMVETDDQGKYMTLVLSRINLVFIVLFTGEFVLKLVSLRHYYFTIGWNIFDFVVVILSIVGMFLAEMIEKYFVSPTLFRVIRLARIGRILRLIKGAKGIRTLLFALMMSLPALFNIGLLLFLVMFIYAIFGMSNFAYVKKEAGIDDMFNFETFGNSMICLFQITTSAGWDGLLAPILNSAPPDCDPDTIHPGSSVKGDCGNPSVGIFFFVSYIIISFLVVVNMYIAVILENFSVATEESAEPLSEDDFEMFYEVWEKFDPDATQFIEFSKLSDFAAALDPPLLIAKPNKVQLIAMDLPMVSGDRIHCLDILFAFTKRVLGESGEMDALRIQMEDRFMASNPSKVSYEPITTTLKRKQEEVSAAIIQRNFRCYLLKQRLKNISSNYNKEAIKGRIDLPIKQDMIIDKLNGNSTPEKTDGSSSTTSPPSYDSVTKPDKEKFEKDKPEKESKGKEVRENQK
hNav1.7, sequence (Q15858 whole entry, looked up): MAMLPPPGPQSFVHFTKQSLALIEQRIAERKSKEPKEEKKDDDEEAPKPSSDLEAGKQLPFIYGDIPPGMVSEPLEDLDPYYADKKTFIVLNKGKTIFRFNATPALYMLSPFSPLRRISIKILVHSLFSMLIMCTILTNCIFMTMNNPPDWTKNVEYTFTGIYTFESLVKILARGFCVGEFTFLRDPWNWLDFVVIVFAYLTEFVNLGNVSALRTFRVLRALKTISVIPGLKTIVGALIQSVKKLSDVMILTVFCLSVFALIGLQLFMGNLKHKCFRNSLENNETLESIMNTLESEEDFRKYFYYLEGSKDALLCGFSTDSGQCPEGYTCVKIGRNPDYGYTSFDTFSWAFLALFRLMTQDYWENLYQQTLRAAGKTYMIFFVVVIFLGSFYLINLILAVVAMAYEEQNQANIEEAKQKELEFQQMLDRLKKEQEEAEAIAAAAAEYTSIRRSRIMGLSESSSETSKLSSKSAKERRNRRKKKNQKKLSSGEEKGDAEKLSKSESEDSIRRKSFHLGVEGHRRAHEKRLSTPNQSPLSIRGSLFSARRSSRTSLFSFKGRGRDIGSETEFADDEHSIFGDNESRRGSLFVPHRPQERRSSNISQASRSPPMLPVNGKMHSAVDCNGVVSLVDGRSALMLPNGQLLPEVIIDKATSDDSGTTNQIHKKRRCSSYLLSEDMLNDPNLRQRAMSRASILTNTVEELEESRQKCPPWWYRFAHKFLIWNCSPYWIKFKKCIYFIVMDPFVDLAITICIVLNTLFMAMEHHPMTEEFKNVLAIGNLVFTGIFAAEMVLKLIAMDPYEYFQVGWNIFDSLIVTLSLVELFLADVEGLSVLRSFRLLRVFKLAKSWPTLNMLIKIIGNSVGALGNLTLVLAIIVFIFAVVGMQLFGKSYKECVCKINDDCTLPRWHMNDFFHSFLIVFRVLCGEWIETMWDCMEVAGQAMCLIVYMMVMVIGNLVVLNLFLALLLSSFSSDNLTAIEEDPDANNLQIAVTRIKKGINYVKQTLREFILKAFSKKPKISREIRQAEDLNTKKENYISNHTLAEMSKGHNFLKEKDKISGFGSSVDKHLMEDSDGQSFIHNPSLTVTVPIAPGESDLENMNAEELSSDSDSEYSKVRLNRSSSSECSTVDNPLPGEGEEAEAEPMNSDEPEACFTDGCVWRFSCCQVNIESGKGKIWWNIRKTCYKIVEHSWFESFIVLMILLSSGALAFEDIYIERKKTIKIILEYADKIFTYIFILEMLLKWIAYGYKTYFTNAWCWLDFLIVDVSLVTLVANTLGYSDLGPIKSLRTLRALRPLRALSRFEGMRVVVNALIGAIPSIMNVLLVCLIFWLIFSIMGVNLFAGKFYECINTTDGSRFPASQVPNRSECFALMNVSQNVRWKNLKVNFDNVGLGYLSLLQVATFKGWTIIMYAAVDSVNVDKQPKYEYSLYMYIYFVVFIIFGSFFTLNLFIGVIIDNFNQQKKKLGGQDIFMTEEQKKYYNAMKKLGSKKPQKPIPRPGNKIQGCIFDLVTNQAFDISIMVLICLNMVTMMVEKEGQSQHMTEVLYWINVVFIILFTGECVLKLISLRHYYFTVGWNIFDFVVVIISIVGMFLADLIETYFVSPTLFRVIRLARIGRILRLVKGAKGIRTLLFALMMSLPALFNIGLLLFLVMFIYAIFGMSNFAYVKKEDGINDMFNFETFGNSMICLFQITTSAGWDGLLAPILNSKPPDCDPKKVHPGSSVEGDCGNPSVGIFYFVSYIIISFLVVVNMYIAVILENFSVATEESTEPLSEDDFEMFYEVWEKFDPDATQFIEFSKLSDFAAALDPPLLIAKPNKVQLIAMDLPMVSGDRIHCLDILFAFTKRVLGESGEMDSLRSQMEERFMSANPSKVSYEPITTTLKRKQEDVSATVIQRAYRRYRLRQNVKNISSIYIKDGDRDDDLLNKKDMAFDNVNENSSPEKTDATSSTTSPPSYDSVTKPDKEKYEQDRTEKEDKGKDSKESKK

Regarding `CC[C@H](C)[C@@H]1NC(=O)[C@@H]2CSSC[C@@H]3NC(=O)[C@H](C(C)C)NC(=O)[C@H](CC(C)C)NC(=O)[C@H](CC(N)=O)NC(=O)[C@@H]4CCCN4C(=O)[C@H](CCCNC(=N)N)NC(=O)[C@H](CSSC[C@H](NC(=O)[C@@H](N)CC(=O)O)C(=O)N[C@@H](CC(C)C)C(=O)NCC(=O)N[C@@H](Cc4ccccc4)C(=O)N[C@@H](CCSC)C(=O)N[C@@H](CCCNC(=N)N)C(=O)N[C@@H](CCCCN)C(=O)N2)NC(=O)[C@H](CSSC[C@@H](C(=O)N[C@@H](CCCCN)C(=O)N[C@@H](Cc2ccc(O)cc2)C(=O)N[C@@H](Cc2c[nH]c4ccccc24)C(=O)N[C@@H](Cc2ccccc2)C(N)=O)NC(=O)[C@H](Cc2c[nH]c4ccccc24)NC(=O)[C@H](CCCCN)NC(=O)[C@H](Cc2c[nH]cn2)NC(=O)[C@H]([C@@H](C)O)NC(=O)[C@H](CCCNC(=N)N)NC(=O)[C@H](CO)NC3=O)NC(=O)[C@H](CCCCN)NC(=O)[C@H](CC(=O)O)NC(=O)[C@H](CC(N)=O)NC(=O)[C@H](CC(=O)O)NC(=O)[C@@H]2CCCN2C1=O` [compound 180] (H-DCLGFMRKCIPDNDKCCRPNLVCSRTHKWCKYWF-NH2; disulfide 2-17, 9-23, 16-30), the IC50 on hNav1.7 (Table 26, use, […]) came to 50 nM; on hNav1.5 (Table 26, use, […]) it was 9060 nM; on hNav1.3 (Table 26, use, […]), 9 nM.
As to `CC[C@H](C)[C@@H]1NC(=O)[C@@H]2CSSC[C@@H]3NC(=O)[C@H](C(C)C)NC(=O)[C@H](CC(C)C)NC(=O)[C@H](CC(N)=O)NC(=O)[C@H](CO)NC(=O)[C@H](CCCNC(=N)N)NC(=O)[C@H](CSSC[C@H](NC(=O)[C@@H](N)CC(=O)O)C(=O)N[C@@H](CC(C)C)C(=O)NCC(=O)N[C@@H](Cc4ccccc4)C(=O)N[C@@H](CCSC)C(=O)N[C@@H](CCCNC(=N)N)C(=O)N[C@@H](CCCCN)C(=O)N2)NC(=O)[C@H](CSSC[C@@H](C(=O)N[C@@H](CCCCN)C(=O)N[C@@H](Cc2ccc(O)cc2)C(=O)N[C@H](C(=O)N[C@@H](Cc2ccccc2)C(N)=O)C(C)C)NC(=O)[C@H](Cc2c[nH]c4ccccc24)NC(=O)[C@H](CCCCN)NC(=O)[C@H](Cc2c[nH]cn2)NC(=O)[C@H]([C@@H](C)O)NC(=O)[C@H](CCCNC(=N)N)NC(=O)[C@H](CO)NC3=O)NC(=O)[C@H](CCCCN)NC(=O)[C@H](CC(=O)O)NC(=O)[C@H](CC(N)=O)NC(=O)[C@H](CC(=O)O)NC(=O)[C@@H]2CCCN2C1=O` [compound 181] (H-DCLGFMRKCIPDNDKCCRSNLVCSRTHKWCKYVF-NH2; disulfide 2-17, 9-23, 16-30), the IC50 at hNav1.7 (Use) came out at 88 nM; on hNav1.5 (Use), 11400 nM; on hNav1.3 (Use), 31 nM.
On to `CC[C@H](C)[C@@H]1NC(=O)[C@@H]2CSSC[C@@H]3NC(=O)[C@H](C(C)C)NC(=O)[C@H](CC(C)C)NC(=O)[C@H](CC(N)=O)NC(=O)[C@@H]4CCCN4C(=O)[C@H](CCCNC(=N)N)NC(=O)[C@H](CSSC[C@H](NC(=O)[C@@H](N)CC(=O)O)C(=O)N[C@@H](CC(C)C)C(=O)NCC(=O)N[C@@H](Cc4ccccc4)C(=O)N[C@@H](CCSC)C(=O)N[C@@H](CCCNC(=N)N)C(=O)N[C@@H](CCCCN)C(=O)N2)NC(=O)[C@H](CSSC[C@@H](C(=O)N[C@@H](CCCCN)C(=O)N[C@@H](Cc2ccc(O)cc2)C(=O)N[C@H](C(=O)N[C@@H](Cc2ccccc2)C(N)=O)C(C)C)NC(=O)[C@H](Cc2c[nH]c4ccccc24)NC(=O)[C@H](CCCCN)NC(=O)[C@H](Cc2c[nH]cn2)NC(=O)[C@H]([C@@H](C)O)NC(=O)[C@H](CCCNC(=N)N)NC(=O)[C@H](CO)NC3=O)NC(=O)[C@H](CCCCN)NC(=O)[C@H](CC(=O)O)NC(=O)[C@H](CC(N)=O)NC(=O)[C@H](CC(C)C)NC(=O)[C@@H]2CCCN2C1=O` [compound 193] (H-DCLGFMRKCIPLNDKCCRPNLVCSRTHKWCKYVF-NH2; disulfide 2-17, 9-23, 16-30), for which the IC50 was 80 nM at hNav1.7 (Use), 6830 nM on hNav1.5 (Use) and 71 nM at hNav1.3 (Use).
As to `CC[C@H](C)[C@@H]1NC(=O)[C@@H]2CSSC[C@@H]3NC(=O)[C@H](C(C)C)NC(=O)[C@H](CC(C)C)NC(=O)[C@H](CC(N)=O)NC(=O)[C@@H]4CCCN4C(=O)[C@H](CCCNC(=N)N)NC(=O)[C@H](CSSC[C@H](NC(=O)[C@@H](N)CC(=O)O)C(=O)N[C@@H](CC(C)C)C(=O)NCC(=O)N[C@@H](Cc4ccccc4)C(=O)N[C@@H](CCSC)C(=O)N[C@@H](CCCNC(=N)N)C(=O)N[C@@H](CCCCN)C(=O)N2)NC(=O)[C@H](CSSC[C@@H](C(=O)N[C@@H](CCCCN)C(=O)N[C@@H](Cc2ccc(O)cc2)C(=O)N[C@H](C(=O)N[C@@H](Cc2ccccc2)C(N)=O)C(C)C)NC(=O)[C@H](Cc2c[nH]c4ccccc24)NC(=O)[C@H](CCCCN)NC(=O)[C@H](Cc2c[nH]cn2)NC(=O)[C@H]([C@@H](C)O)NC(=O)[C@H](CCCNC(=N)N)NC(=O)[C@H](CO)NC3=O)NC(=O)[C@H](CCCCN)NC(=O)[C@H](CC(=O)O)NC(=O)[C@H](CC(N)=O)NC(=O)CNC(=O)[C@@H]2CCCN2C1=O` [compound 194] (H-DCLGFMRKCIPGNDKCCRPNLVCSRTHKWCKYVF-NH2; disulfide 2-17, 9-23, 16-30), the IC50 on hNav1.7 (Use) worked out at 75 nM; on hNav1.5 (Use) it was 8760 nM; at hNav1.3 (Use) it was 47 nM.
For `CC[C@H](C)[C@@H]1NC(=O)[C@@H]2CCCN2C(=O)[C@H]([C@@H](C)CC)NC(=O)[C@@H]2CSSC[C@@H]3NC(=O)[C@H](C(C)C)NC(=O)[C@H](CC(C)C)NC(=O)[C@H](CC(N)=O)NC(=O)[C@@H]4CCCN4C(=O)[C@H](CCCNC(=N)N)NC(=O)[C@H](CSSC[C@H](NC(=O)[C@@H](N)CC(=O)O)C(=O)N[C@@H](CC(C)C)C(=O)NCC(=O)N[C@@H](Cc4ccccc4)C(=O)N[C@@H](CCSC)C(=O)N[C@@H](CCCNC(=N)N)C(=O)N[C@@H](CCCCN)C(=O)N2)NC(=O)[C@H](CSSC[C@@H](C(=O)N[C@@H](CCCCN)C(=O)N[C@@H](Cc2ccc(O)cc2)C(=O)N[C@H](C(=O)N[C@@H](Cc2ccccc2)C(N)=O)C(C)C)NC(=O)[C@H](Cc2c[nH]c4ccccc24)NC(=O)[C@H](CCCCN)NC(=O)[C@H](Cc2c[nH]cn2)NC(=O)[C@H]([C@@H](C)O)NC(=O)[C@H](CCCNC(=N)N)NC(=O)[C@H](CO)NC3=O)NC(=O)[C@H](CCCCN)NC(=O)[C@H](CC(=O)O)NC(=O)[C@H](CC(N)=O)NC1=O` [compound 195] (H-DCLGFMRKCIPINDKCCRPNLVCSRTHKWCKYVF-NH2; disulfide 2-17, 9-23, 16-30) the same measures were 662 nM, 18300 nM and 607 nM.
With `CC[C@H](C)[C@@H]1NC(=O)[C@@H]2CSSC[C@@H]3NC(=O)[C@H](C(C)C)NC(=O)[C@H](CC(C)C)NC(=O)[C@H](CC(N)=O)NC(=O)[C@@H]4CCCN4C(=O)[C@H](CCCNC(=N)N)NC(=O)[C@H](CSSC[C@H](NC(=O)[C@@H](N)CC(=O)O)C(=O)N[C@@H](CC(C)C)C(=O)NCC(=O)N[C@@H](Cc4ccccc4)C(=O)N[C@@H](CCSC)C(=O)N[C@@H](CCCNC(=N)N)C(=O)N[C@@H](CCCCN)C(=O)N2)NC(=O)[C@H](CSSC[C@@H](C(=O)N[C@@H](CCCCN)C(=O)N[C@@H](Cc2ccc(O)cc2)C(=O)N[C@H](C(=O)N[C@@H](Cc2ccccc2)C(N)=O)C(C)C)NC(=O)[C@H](Cc2c[nH]c4ccccc24)NC(=O)[C@H](CCCCN)NC(=O)[C@H](Cc2c[nH]cn2)NC(=O)[C@H]([C@@H](C)O)NC(=O)[C@H](CCCNC(=N)N)NC(=O)[C@H](CO)NC3=O)NC(=O)[C@H](CCCCN)NC(=O)[C@H](CC(=O)O)NC(=O)[C@H](CC(N)=O)NC(=O)[C@H]([C@@H](C)O)NC(=O)[C@@H]2CCCN2C1=O` [compound 196] (H-DCLGFMRKCIPTNDKCCRPNLVCSRTHKWCKYVF-NH2; disulfide 2-17, 9-23, 16-30), the IC50 on hNav1.7 (Use) was found to be 97 nM; on hNav1.5 (Use) it was 7080 nM; at hNav1.3 (Use), 74 nM.
